Patent US12410209B2, “Modified glucocorticoids” (Board of Regents, The University of Texas System, priority 2021, dated 2025)

Key:
Assay type in all cases: cell-based, human
Met4 cells = assay: MTT assay for cell viability; details: cancerous Met4 cells, range of concentrations, FIG. 2
HaCaT cells = assay: MTT assay for cell viability; details: for sensitivity of cells to glucocorticoid treatment (cell proliferation): normal HaCaT cells compared to cancerous PM1 and Met4 cells
PM1 cells = assay: MTT assay for cell viability; details: cancerous PM-1 cells, range of concentrations, FIG. 2
IL-1β mRNA = assay: qPCR analysis of LPS-induced IL-1β mRNA; details: HaCat cells, LPS-induced inflammation, FIG. 5
Text: qPCR analysis is shown FIG. 5.

| Structure (SMILES) | potency against cell proliferation compared with cortisol (Met4 cells) | sensitivity of cells to glucocorticoid treatment (cell proliferation) (HaCaT cells) | potency against cell proliferation compared with cortisol (HaCaT cells; normal HaCaT cells, range of concentrations, FIG. 2) | potency against cell proliferation compared with cortisol (PM1 cells) | LPS-induced increase of inflammatory cytokine IL-1β (IL-1β mRNA) |
| --- | --- | --- | --- | --- | --- |
| C[C@]12CCC(=O)C=C1CC[C@@H]1[C@@H]2[C@@H](F)C[C@@]2(C)[C@H]1CC[C@]2(O)C(=O)CO [F-MOD, 11-deoxyfluorocortisol] | at least as powerful as the original cortisol | more sensitive | at least as powerful as the original cortisol | at least as powerful as the original cortisol if not stronger | significantly suppressed |
| C[C@]12CCC(=O)C=C1CC[C@@H]1[C@@H]2[C@@H](O)C[C@@]2(C)[C@H]1CC[C@]2(O)C(=O)CO [cortisol, reference compound] | – | more sensitive | – | – | significantly suppressed |
